From patent US10081624B2, “Heterocyclic compound” (Takeda Pharmaceutical Company Limited, priority 2014, dated 2018)

Key:
[1] = target: T1, HDAC1 enzyme (Homo sapiens, UniProt Q13547); assay: HDAC1 enzyme inhibitory assay (HDAC-Glo I/II Assay kit); type: biochemical; details: 1 μM test compound; for inhibition at 1 µM: read-out: HDAC1 inhibitory rate (%) (1 μM)
T1 construct: prepared by transducing full length HDAC1 and HDAC6 genes into Sf-9 insect cells; GST; purchased SignalChem; host or cells: Sf-9 insect cells
T1 sequence (Q13547 whole entry): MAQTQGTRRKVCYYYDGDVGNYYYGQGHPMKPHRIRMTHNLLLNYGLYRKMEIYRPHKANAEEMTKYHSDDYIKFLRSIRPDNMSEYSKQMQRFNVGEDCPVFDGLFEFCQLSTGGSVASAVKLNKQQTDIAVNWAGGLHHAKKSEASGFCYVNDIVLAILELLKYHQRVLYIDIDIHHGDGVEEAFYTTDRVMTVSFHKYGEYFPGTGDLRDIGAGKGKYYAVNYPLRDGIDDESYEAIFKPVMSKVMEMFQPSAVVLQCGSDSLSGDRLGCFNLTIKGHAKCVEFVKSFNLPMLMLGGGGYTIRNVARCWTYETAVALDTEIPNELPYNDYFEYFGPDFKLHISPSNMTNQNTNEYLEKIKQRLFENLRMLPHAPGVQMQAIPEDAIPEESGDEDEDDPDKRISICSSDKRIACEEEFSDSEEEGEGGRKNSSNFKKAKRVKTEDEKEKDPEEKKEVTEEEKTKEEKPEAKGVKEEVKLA
How it was run: (§1)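 Luminescence read-out: 20 min after adding HDAC-Glo substrate-developer at room temperature. Before that, compound and Sf-9-expressed, GST-purified full-length HDAC1 or HDAC6 sat together 60 min in pH 7.5 Tris buffer. Inhibition is relative to no-enzyme wells taken as 100%.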

[2] = target: T2, HDAC6 enzyme (Homo sapiens, UniProt Q9UBN7); assay: HDAC6 enzyme inhibitory assay (HDAC-Glo I/II Assay kit); type: biochemical; details: 1 μM test compound; for inhibition at 1 µM: read-out: HDAC6 inhibitory rate (%) (1 μM)
T2 construct: prepared by transducing full length HDAC1 and HDAC6 genes into Sf-9 insect cells; GST; purchased SignalChem; host or cells: Sf-9 insect cells
T2 sequence (Q9UBN7 1-1215): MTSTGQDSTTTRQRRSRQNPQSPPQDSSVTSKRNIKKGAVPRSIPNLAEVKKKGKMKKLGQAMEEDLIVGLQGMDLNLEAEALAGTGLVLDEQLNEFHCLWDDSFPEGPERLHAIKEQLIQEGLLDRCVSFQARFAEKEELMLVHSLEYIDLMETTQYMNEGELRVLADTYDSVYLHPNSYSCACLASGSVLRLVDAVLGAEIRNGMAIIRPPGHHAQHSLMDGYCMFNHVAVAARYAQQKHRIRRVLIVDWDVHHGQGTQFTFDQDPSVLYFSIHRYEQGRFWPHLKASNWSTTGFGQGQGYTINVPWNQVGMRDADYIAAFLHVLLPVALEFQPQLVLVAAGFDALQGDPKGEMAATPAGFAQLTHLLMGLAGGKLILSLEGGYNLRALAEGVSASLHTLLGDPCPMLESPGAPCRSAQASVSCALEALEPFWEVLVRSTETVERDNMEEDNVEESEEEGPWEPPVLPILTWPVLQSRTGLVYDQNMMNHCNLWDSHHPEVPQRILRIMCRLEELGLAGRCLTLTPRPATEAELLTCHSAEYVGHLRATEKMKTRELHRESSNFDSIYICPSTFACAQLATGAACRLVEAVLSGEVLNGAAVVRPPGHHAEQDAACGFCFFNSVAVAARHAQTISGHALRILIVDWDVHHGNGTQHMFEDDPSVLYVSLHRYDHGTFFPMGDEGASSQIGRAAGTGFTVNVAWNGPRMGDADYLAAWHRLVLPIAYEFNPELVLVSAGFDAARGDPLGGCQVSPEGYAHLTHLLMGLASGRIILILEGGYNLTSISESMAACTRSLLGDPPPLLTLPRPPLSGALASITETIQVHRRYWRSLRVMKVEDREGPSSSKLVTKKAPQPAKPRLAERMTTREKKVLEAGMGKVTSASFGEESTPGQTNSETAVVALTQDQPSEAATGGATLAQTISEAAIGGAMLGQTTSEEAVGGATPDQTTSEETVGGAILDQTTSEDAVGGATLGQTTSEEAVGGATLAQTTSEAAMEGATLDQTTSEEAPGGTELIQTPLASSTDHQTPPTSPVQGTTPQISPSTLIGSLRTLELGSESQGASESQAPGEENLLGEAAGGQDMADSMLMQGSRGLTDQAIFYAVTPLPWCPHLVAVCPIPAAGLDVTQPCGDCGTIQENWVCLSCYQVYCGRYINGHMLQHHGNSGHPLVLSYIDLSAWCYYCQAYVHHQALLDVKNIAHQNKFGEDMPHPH
How it was run: as §1

Row | SMILES | inhibition at 1 µM [1] [%] | inhibition at 1 µM [2] [%] | HDAC1 inhibitory rate (%) (1 μM) ([1]; 1 µM) | HDAC6 inhibitory rate (%) (1 μM) [2] | HDAC1 inhibitory rate (%) (1 μM) [1]
1 | O=C(NCC1Cc2ccccc2CN1C(=O)c1ccccc1)c1ccc(-c2noc(C(F)(F)F)n2)cc1 (centres unmarked) [Example 175, N-((2-benzoyl-1,2,3,4-tetrahydroisoquinolin-3-yl)methyl)-4-(5-(trifluoromethyl)-1,2,4-oxadiazol-3-yl)benzamide] | 18 | 97 |  |  | 
2 | Cc1ccc(C(=O)N2CCOCC2CNC(=O)c2ccc(-c3noc(C(F)(F)F)n3)cc2)cc1 (centres unmarked) [Example 11, N-((4-(4-methylbenzoyl)morpholin-3-yl)methyl)-4-(5-(trifluoromethyl)-1,2,4-oxadiazol-3-yl)benzamide] | 21 | 99 |  |  | 
3 | C[C@H]1CCCN1C(=O)N1CCOC[C@@H]1CNC(=O)c1ccc(-c2noc(C(F)(F)F)n2)cc1 [Example 288, N-(((3S)-4-(((2S)-2-methylpyrrolidin-1-yl)carbonyl)morpholin-3-yl)methyl)-4-(5-(trifluoromethyl)-1,2,4-oxadiazol-3-yl)benzamide] | 3 | 102 |  |  | 
4 | O=C(NCC1COCCN1C(=O)c1ccccc1)c1ccc(-c2noc(C(F)(F)F)n2)cc1 (stereo in doubt) [Example 111, N-(((3R)-4-benzoylmorpholin-3-yl)methyl)-4-(5-(trifluoromethyl)-1,2,4-oxadiazol-3-yl)benzamide] | 21 | 101 |  |  | 
5 | O=C(NC[C@@H]1COCCN1C(=O)C1CCCCC1)c1ccc(-c2noc(C(F)(F)F)n2)cc1 [Example 152, N-(((3R)-4-(cyclohexylcarbonyl)morpholin-3-yl)methyl)-4-(5-(trifluoromethyl)-1,2,4-oxadiazol-3-yl)benzamide] | 20 | 99 |  |  | 
6 | O=C(NCC1COCCN1C(=O)C1CCNC1=O)c1ccc(-c2noc(C(F)(F)F)n2)cc1 (stereo in doubt) [Example 105, N-(((3S)-4-((2-oxopyrrolidin-3-yl)carbonyl)morpholin-3-yl)methyl)-4-(5-(trifluoromethyl)-1,2,4-oxadiazol-3-yl)benzamide] |  |  | 8 | 76 | 
7 | CC(C)(C(=O)N1CCOC[C@@H]1CNC(=O)c1ccc(-c2noc(C(F)(F)F)n2)cn1)c1ccccc1 [Example 206, N-(((3S)-4-(2-methyl-2-phenylpropanoyl)morpholin-3-yl)methyl)-5-(5-(trifluoromethyl)-1,2,4-oxadiazol-3-yl)pyridine-2-carboxamide] | 33 | 98 |  |  | 
8 | O=C(NCC1COCCN1C(=O)C12CC3CC(CC(C3)C1)C2)c1ccc(-c2noc(C(F)(F)F)n2)cc1 (stereo in doubt) [Example 97, N-(((3S)-4-(adamantan-1-ylcarbonyl)morpholin-3-yl)methyl)-4-(5-(trifluoromethyl)-1,2,4-oxadiazol-3-yl)benzamide] | 16 | 96 |  |  | 
9 | O=C(NC[C@H]1COCCN1C(=O)c1cc(F)c(F)c(F)c1)c1ccc(-c2noc(C(F)(F)F)n2)cc1 [Example 47, N-(((3S)-4-(3,4,5-trifluorobenzoyl)morpholin-3-yl)methyl)-4-(5-(trifluoromethyl)-1,2,4-oxadiazol-3-yl)benzamide] |  |  |  | 102 | 11
10 | O=C(NC[C@H]1COCCN1C(=O)C1CCCCC1)c1ccc(-c2noc(C(F)(F)F)n2)cc1 [Example 80, N-(((3S)-4-(cyclohexylcarbonyl)morpholin-3-yl)methyl)-4-(5-(trifluoromethyl)-1,2,4-oxadiazol-3-yl)benzamide] | 15 | 98 |  |  | 
11 | Cn1nc2ccccc2c1C(=O)N1CCOC[C@@H]1CNC(=O)c1ccc(-c2noc(C(F)(F)F)n2)cc1 [Example 82, N-(((3S)-4-((2-methyl-2H-indazol-3-yl)carbonyl)morpholin-3-yl)methyl)-4-(5-(trifluoromethyl)-1,2,4-oxadiazol-3-yl)benzamide] | 60 | 101 |  |  | 
12 | O=C(NCC1COCCN1C(=O)c1cc(Cl)cc(Cl)c1)c1ccc(-c2noc(C(F)(F)F)n2)cc1 (centres unmarked) [Example 30, N-((4-(3,5-dichlorobenzoyl)morpholin-3-yl)methyl)-4-(5-(trifluoromethyl)-1,2,4-oxadiazol-3-yl)benzamide] | 24 | 98 |  |  | 
13 | O=C(NCC1COCCN1C(=O)c1cc(Cl)cc(Cl)c1)c1ccc(-c2noc(C(F)(F)F)n2)cn1 (centres unmarked) [Example 182, N-((4-(3,5-dichlorobenzoyl)morpholin-3-yl)methyl)-5-(5-(trifluoromethyl)-1,2,4-oxadiazol-3-yl)pyridine-2-carboxamide] | 42 | 97 |  |  | 
14 | O=C(NC[C@H]1COCCN1C(=O)C1C2CC3CC(C2)CC1C3)c1ccc(-c2noc(C(F)(F)F)n2)cn1 (some centres unmarked) [Example 205, N-((4-(adamantan-2-ylcarbonyl)morpholin-3-yl)methy)-5-(5-(trifluoromethyl)-1,2,4-oxadiazol-3-yl)pyridine-2-carboxamide] | 59 | 99 |  |  | 
15 | O=C(O)c1cccc(C(=O)N2CCOC[C@@H]2CNC(=O)c2ccc(-c3noc(C(F)(F)F)n3)cc2)c1 [Example 269, 3-(((3S)-3-(((4-(5-(trifluoromethyl)-1,2,4-oxadiazol-3-yl)benzoyl)amino)methyl)morpholin-4-yl)carbonyl)benzoic acid] | 7 | 89 |  |  | 
16 | Cn1nc(C(=O)N2CCOCC2CNC(=O)c2ccc(-c3noc(C(F)(F)F)n3)cc2)c2ccccc21 (centres unmarked) [Example 18, N-((4-((1-methyl-1H-indazol-3-yl)carbonyl)morpholin-3-yl)methyl)-4-(5-(trifluoromethyl)-1,2,4-oxadiazol-3-yl)benzamide] | 9 | 98 |  |  | 
17 | O=C(NC[C@H]1COCCN1C(=O)N1CCCCC1CO)c1ccc(-c2noc(C(F)(F)F)n2)cc1 (stereo partly drawn) [Example 303, N-(((3S)-4-((2-(hydroxymethyl)piperidin-1-yl)carbonyl)morpholin-3-yl)methyl)-4-(5-(trifluoromethyl)-1,2,4-oxadiazol-3-yl)benzamide] | 8 | 99 |  |  | 
18 | CC(C)(C(=O)N1CCOCC1CNC(=O)c1ccc(-c2noc(C(F)(F)F)n2)cc1)n1cccn1 (stereo in doubt) [Example 101, N-(((3S)-4-(2-methyl-2-(1H-pyrazol-1-yl)propanoyl)morpholin-3-yl)methyl)-4-(5-(trifluoromethyl)-1,2,4-oxadiazol-3-yl)benzamide] | 17 | 99 |  |  | 
19 | O=C(NC[C@@H]1COCCN1C(=O)C1CCOCC1)c1ccc(-c2noc(C(F)(F)F)n2)cc1 [Example 153, N-(((3R)-4-(tetrahydro-2H-pyran-4-ylcarbonyl)morpholin-3-yl)methyl)-4-(5-(trifluoromethyl)-1,2,4-oxadiazol-3-yl)benzamide] | 3 | 92 |  |  | 
20 | N#Cc1ccc(C(=O)N2CCOC[C@@H]2CNC(=O)c2ccc(-c3noc(C(F)(F)F)n3)cc2)cc1 [Example 45, N-(((3S)-4-(4-cyanobenzoyl)morpholin-3-yl)methyl)-4-(5-(trifluoromethyl)-1,2,4-oxadiazol-3-yl)benzamide] | 25 |  |  | 99 | 
21 | O=C(NC[C@@H]1COCCN1C(=O)C1CCCCC1)c1ccc(-c2noc(C(F)(F)F)n2)s1 [Example 266, N-(((3R)-4-(cyclohexylcarbonyl)morpholin-3-yl)methyl)-5-(5-(trifluoromethyl)-1,2,4-oxadiazol-3-yl)thiophene-2-carboxamide] | 30 | 98 |  |  | 
22 | O=C(NCC1COCCN1C(=O)c1ccccc1)c1ccc(-c2noc(C(F)(F)F)n2)s1 (single isomer, unassigned) [Example 258, (R or S)-N-((4-benzoylmorpholin-3-yl)methyl)-5-(5-(trifluoromethyl)-1,2,4-oxadiazol-3-yl)thiophene-2-carboxamide] |  |  | 31 | 96 | 
